According to patent US12570662B2, “Substituted pyrrolo[1,2-b]pyridazines as bifunctional degraders of interleukin-1 receptor-associated kinases” (Nurix Therapeutics, Inc., priority 2021, dated 2026):

Molecular target: T1, IRAK4 (Homo sapiens, UniProt Q9NWZ3)
T1 construct: C-terminal HiBiT-tagged Jurkat cells (polyclonal cell line or clone 8D5); endogenous in cells; host or cells: Jurkat cells (polyclonal cell line or clone 8D5), HiBiT-tagged
T1 sequence (Q9NWZ3 1-460): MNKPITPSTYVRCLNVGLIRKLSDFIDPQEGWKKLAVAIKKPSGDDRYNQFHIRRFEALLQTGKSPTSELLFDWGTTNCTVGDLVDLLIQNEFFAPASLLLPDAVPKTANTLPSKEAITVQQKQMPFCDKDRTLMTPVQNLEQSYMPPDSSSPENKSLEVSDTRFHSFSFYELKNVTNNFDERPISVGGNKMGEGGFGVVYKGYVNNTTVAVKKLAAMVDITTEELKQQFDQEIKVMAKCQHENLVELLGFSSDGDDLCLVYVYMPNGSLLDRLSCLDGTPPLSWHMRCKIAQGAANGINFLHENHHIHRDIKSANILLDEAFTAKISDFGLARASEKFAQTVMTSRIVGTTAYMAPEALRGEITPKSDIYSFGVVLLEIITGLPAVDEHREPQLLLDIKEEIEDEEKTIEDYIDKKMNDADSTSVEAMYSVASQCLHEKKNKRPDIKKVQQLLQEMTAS
Assay: IRAK4 Degradation HiBit Assay
Assay type: cell-based
Details: C-terminal HiBiT-tagged Jurkat cells, 4 hrs incubation; for DC50: % IRAK4 remaining, four-parameter fit (IC50 used as DC50); for Dmax: from fit of % IRAK4 remaining, read-out: Dmax
Protocol: Compound dilution series (11-point, 3.16-fold dilutions in DMSO, columns 1-11 and 12-22) at 500× the final required concentrations were prepared in Labcyte LDV 384-well plates (cat. no. LP-0200) using a Labcyte Echo 550 Liquid Handler. The 500× solutions ranged from 5 mM to 0.5 μM (final assay concentration range 10 μM to 0.1 nM). Using the Echo, the 500× solutions were stamped into white, 384-well assay plates (Corning, cat. no. 3570) at 60 nL/well. The following assay plate controls were also stamped at 60 nL/well: DMSO in wells E23-P23 (NC, Negative Control, maximum signal), 5 mM solution control compound al in wells A23-D23 and M24-P24 (AC, Active Control, minimum signal/background, 10 μM final assay concentration), control compound al dilution series in wells […] (12-point, 4-fold dilutions). C-terminal HiBiT-tagged Jurkat cells (polyclonal cell line or clone 8D5) were plated at 1×10^6 cells/mL, 30 μL/well (3×10^4 cells/well) in complete RPMI (10% FBS, 1% L-glutamine). Cells were incubated for 4 hrs at 32° C./6% CO2. Compound al has the following structure:
Following incubation, 30 μL of complete Nano-Glo HiBiT Lytic Detection Reagent (Nano-Glo HiBiT Lytic Buffer with 1:50 Nano-Glo HiBiT Lytic Substrate and 1:100 LgBiT Protein; Promega cat. no. N3040) was added. Cells were further incubated for 10 min at room temperature (RT). Luminescence units (LU) were read on an EnVision plate reader (Perkin Elmer, 0.1 sec per well). Percent IRAK4 remaining per sample was calculated as follows: […]
Using Graphpad Prism, % IRAK4 remaining values were plotted as a function of compound concentration. To determine DC50 and Dmax values, resulting curves were fit to the Prism curve-fitting equation “log (inhibitor) vs response-Variable slope (four parameters)” (reported best fit value IC50 used as DC50). Table 1 summarizes the biological data of Compounds of Examples 1-137 and 142-145 obtained from the assays described herein.

Compound	DC50 [nM]	Dmax [%]
CC(C)Nc1cc(-c2ccc3cc(C#N)cnn23)ncc1-c1nnc(N2CC3CCC(C2)N3CC2CCN(c3ccc([C@H]4CCC(=O)NC4=O)cn3)CC2)s1 (racemic) [Example 2, rac-7-[5-(5-{8-[(1-{5-[(3R)-2,6-dioxopiperidin-3-yl]pyridin-2-yl}piperidin-4-yl)methyl]-3,8-diazabicyclo[3.2.1]octan-3-yl}-1,3,4-thiadiazol-2-yl)-4-[(propan-2-yl)amino]pyridin-2-yl]pyrrolo[1,2-b]pyridazine-3-carbonitrile]	53	67
N#Cc1cnn2c(-c3cc(NC4CCOCC4)c(-c4nnc(N5CCN(CC6CCN(c7ccc(C8CCC(=O)NC8=O)c(F)c7)CC6)CC5)s4)cn3)ccc2c1 (racemic) [Example 3, rac-7-[5-(5-{4-[(1-{4-[(3R)-2,6-dioxopiperidin-3-yl]-3-fluorophenyl}piperidin-4-yl)methyl]piperazin-1-yl}-1,3,4-thiadiazol-2-yl)-4-[(oxan-4-yl)amino]pyridin-2-yl]pyrrolo[1,2-b]pyridazine-3-carbonitrile]	55	93
CNc1cc(-c2ccc3cc(C#N)cnn23)ncc1-c1nnc([C@H]2CC[C@H](C(=O)N3CCc4cc([C@H]5CCC(=O)NC5=O)ccc4C3)CC2)s1 (racemic) [Example 5, 7-[4-(methylamino)-5-{5-[(1r,4r)-4-{6-[(3RS)-2,6-dioxopiperidin-3-yl]-1,2,3,4-tetrahydroisoquinoline-2-carbonyl}cyclohexyl]-1,3,4-thiadiazol-2-yl}pyridin-2-yl]pyrrolo[1,2-b]pyridazine-3-carbonitrile]	21	79
CNc1cc(-c2ccc3cc(C#N)cnn23)ncc1-c1nnc([C@H]2CC[C@H](CN3CCc4cc([C@H]5CCC(=O)NC5=O)ccc4C3)CC2)s1 (racemic) [Example 6, 7-[4-(methylamino)-5-{5-[(1r,4r)-4-({6-[(3RS)-2,6-dioxopiperidin-3-yl]-1,2,3,4-tetrahydroisoquinolin-2-yl}methyl)cyclohexyl]-1,3,4-thiadiazol-2-yl}pyridin-2-yl]pyrrolo[1,2-b]pyridazine-3-carbonitrile]	70	36
CC(C)Nc1cc(-c2ccc3cc(C#N)cnn23)ncc1-c1nnc(N2CCN(CC3CCN(c4ccc(C5CCC(=O)NC5=O)cn4)CC3)C3(CC3)C2)s1 (racemic) [Example 7, rac-7-[5-(5-{4-[(1-{5-[(3R)-2,6-dioxopiperidin-3-yl]pyridin-2-yl}piperidin-4-yl)methyl]-4,7-diazaspiro[2.5]octan-7-yl}-1,3,4-thiadiazol-2-yl)-4-[(propan-2-yl)amino]pyridin-2-yl]pyrrolo[1,2-b]pyridazine-3-carbonitrile]	129	17
CC(C)Nc1cc(-c2ccc3cc(C#N)cnn23)ncc1-c1nnc(N2CCN(C[C@@H]3CCN(c4ccc([C@H]5CCC(=O)NC5=O)cn4)C3)CC2)s1 (racemic) [Example 10, 7-{5-[5-(4-{[(3RS)-1-{5-[(3RS&)-2,6-dioxopiperidin-3-yl]pyridin-2-yl}pyrrolidin-3-yl]methyl}piperazin-1-yl)-1,3,4-thiadiazol-2-yl]-4-[(propan-2-yl)amino]pyridin-2-yl}pyrrolo[1,2-b]pyridazine-3-carbonitrile]	41	71

More lines, now with the values ahead:

DC50 [nM]	Dmax [%]	Compound
16	115	N#Cc1cnn2c(-c3cc(N[C@H]4CCOC4)c(-c4nnc(N5CCN(CC6CCN(c7ccc([C@H]8CCC(=O)NC8=O)cn7)CC6)CC5)s4)cn3)ccc2c1 (mixture of isomers) [Example 93, 7-[5-(5-{4-[(1-{5-[(3RS)-2,6-dioxopiperidin-3-yl]pyridin-2-yl}piperidin-4-yl)methyl]piperazin-1-yl}-1,3,4-thiadiazol-2-yl)-4-{[(3R)-oxolan-3-yl]amino}pyridin-2-yl]pyrrolo[1,2-b]pyridazine-3-carbonitrile]
860	96	N#Cc1cnn2c(-c3cc(NC4CCC(F)(F)CC4)c(-c4nnc(N5CCN(CC6CCN(c7ccc(C8CCC(=O)NC8=O)cn7)CC6)CC5)s4)cn3)ccc2c1 (racemic) [Example 1, rac-7-{4-[(4,4-difluorocyclohexyl)amino]-5-(5-{4-[(1-{5-[(3R)-2,6-dioxopiperidin-3-yl]pyridin-2-yl}piperidin-4-yl)methyl]piperazin-1-yl}-1,3,4-thiadiazol-2-yl)pyridin-2-yl}pyrrolo[1,2-b]pyridazine-3-carbonitrile]
65	90	N#Cc1cnn2c(-c3cc(NC4CCOCC4)c(-c4nnc(N5CCN(CC6CCN(c7ccc(C8CCC(=O)NC8=O)cc7F)CC6)CC5)s4)cn3)ccc2c1 (racemic) [Example 4, rac-7-[5-(5-{4-[(1-{4-[(3R)-2,6-dioxopiperidin-3-yl]-2-fluorophenyl}piperidin-4-yl)methyl]piperazin-1-yl}-1,3,4-thiadiazol-2-yl)-4-[(oxan-4-yl)amino]pyridin-2-yl]pyrrolo[1,2-b]pyridazine-3-carbonitrile]
69	90	N#Cc1cnn2c(-c3cc(NC4CCOCC4)c(-c4nnc(N5CCN(CC6CCN(c7ccc(C8CCC(=O)NC8=O)cc7)CC6)CC5)s4)cn3)ccc2c1 (racemic) [Example 9, rac-7-[5-(5-{4-[(1-{4-[(3R)-2,6-dioxopiperidin-3-yl]phenyl}piperidin-4-yl)methyl]piperazin-1-yl}-1,3,4-thiadiazol-2-yl)-4-[(oxan-4-yl)amino]pyridin-2-yl]pyrrolo[1,2-b]pyridazine-3-carbonitrile]
32	77	N#Cc1cnn2c(-c3cc(NC4CCOCC4)c(-c4nnc(N5CCN(CC6CCN(c7cncc(C8CCC(=O)NC8=O)c7)CC6)CC5)s4)cn3)ccc2c1 (racemic) [Example 11, rac-7-[5-(5-{4-[(1-{5-[(3R)-2,6-dioxopiperidin-3-yl]pyridin-3-yl}piperidin-4-yl)methyl]piperazin-1-yl}-1,3,4-thiadiazol-2-yl)-4-[(oxan-4-yl)amino]pyridin-2-yl]pyrrolo[1,2-b]pyridazine-3-carbonitrile]
36	60	N#Cc1cnn2c(-c3cc(NC4CCOCC4)c(-c4nnc(N5CCN(CC6CCN(c7cc(C8CCC(=O)NC8=O)ccn7)CC6)CC5)s4)cn3)ccc2c1 (racemic) [Example 12, rac-7-[5-(5-{4-[(1-{4-[(3R)-2,6-dioxopiperidin-3-yl]pyridin-2-yl}piperidin-4-yl)methyl]piperazin-1-yl}-1,3,4-thiadiazol-2-yl)-4-[(oxan-4-yl)amino]pyridin-2-yl]pyrrolo[1,2-b]pyridazine-3-carbonitrile]
32	66	N#Cc1cnn2c(-c3cc(NC4CCOCC4)c(-c4nnc(N5CCN(C[C@@H]6CCN(c7ccc([C@H]8CCC(=O)NC8=O)cn7)C6)CC5)s4)cn3)ccc2c1 (racemic) [Example 13, 7-{5-[5-(4-{[(3RS)-1-{5-[(3RS&)-2,6-dioxopiperidin-3-yl]pyridin-2-yl}pyrrolidin-3-yl]methyl}piperazin-1-yl)-1,3,4-thiadiazol-2-yl]-4-[(oxan-4-yl)amino]pyridin-2-yl}pyrrolo[1,2-b]pyridazine-3-carbonitrile]
